In patent US20060167106A1, “Compounds acting at the centrosome” (priority 2004, published 2006):
Entries after “also recorded” stand apart in the source; their conditions may differ.

What was measured:
Hsp70 = Hsp70 Western blotting in MDA-435 cells; assay type: cell-based; settings: 0.5 μM; for percentage change in Hsp70 expression relative to DMSO control: normalized to background and GAPDH
Description: Calculations of the percentage changes were made by using the automated band analysis tools of the Kodak 1D (v.3.6.3) program. Band intensities were normalized to background and GAPDH.
MDA-435 breast cancer cells were grown in 100 mm plastic-tissue culture dishes and treated for 6 and 24 hours with 0.5 μM Taxol, Compound 1, Taxol+Compound 1, MG132, ALLN, or DMSO. After treatment, cells were washed in PBS and cell lysates were prepared by adding 100 μL of lysis buffer, which contained 20 mM Tris-HCl (pH 7.5), 150 mM NaCl, 1 mM Na2EDTA, 1 mM EGTA, 1% Triton, 2.5 mM sodium pyrophosphate, 1 mM β-glycerophosphate, 1 mM Na3VO4 and 1 μg/ml leupeptin (Cell Signaling Technology, Beverly, Mass.) supplemented with 1 mM PMSF (Sigma, St. Louis, Mo.) immediately before use, on ice for 1 hour. After scraping, the lysates were cleared by centrifugation at 13,000 RPM for 10 minutes at 4° C. Protein content was determined using a Bradford assay and bovine serum albumin as a standard (Bio-Rad Laboratories, Hercules, Calif.). Samples were solubilized by boiling in SDS sample buffer and subjected to SDS-PAGE. The proteins were subsequently transferred to a PVDF membrane (Bio-Rad, Hercules, Calif.). After blocking with 5% nonfat milk in TBS for 1 hour, the blots were incubated with a mouse monoclonal anti-Hsp70 antibody, which is specific for the inducible form of Hsp70 (Clone C92F3A-5, 1:1000 dilution, Stressgen Biotechnologies Corp., Victoria, B.C., Canada) or a rabbit polyclonal anti-GAPDH antibody (1:2000 dilution, Abcam, Cambridge, Mass.) for 2 hours at room temperature. The horseradish-peroxidase-conjugated secondary antibodies, anti-mouse horse radish peroxidase, (1:2000, Bio-Rad, Hercules, Calif.) and goat anti-rabbit polyclonal horse radish peroxidase (1:2000, Abcam, Cambridge, Mass.)) were diluted in blocking buffer and incubated with the blot for 1 hour at room temperature. The secondary antibodies were detected by enhanced chemiluminescence (ECL, Amersham Biosciences, Piscataway, N.J.) and imaged using a Kodak 440 Image Station.

CV-1 cells = assay: α-tubulin immunofluorescence, microtubule network in CV-1 cells; assay type: cell-based, monkey; settings: 0.5 μM, 5 hours
Description: Before treatment, cells were grown in chamber slides for 24 hours in culture media containing 90% Eagle's MEM and 10% BCS. […] Cells were then washed in PBS and fixed in ice-cold 50/50 methanol/acetone for 10 minutes. […] Sigma, St. Louis, Mo.). Subsequently, slides were washed in PBS, incubated with an AlexaFluoR488-conjugated anti-mouse antibody (Molecular Probes, Eugene, Oreg.) at 37° C. for 30 minutes.

CN(NC(=O)CC(=O)NN(C)C(=S)c1ccccc1)C(=S)c1ccccc1 [Compound 1]
induction of Hsp70 expression (Hsp70; 6 and 24 hours): strongly induced Hsp70 expression | percentage change in Hsp70 expression relative to DMSO control (Hsp70; 6 hours of treatment): 980% | percentage change in Hsp70 expression relative to DMSO control (Hsp70; 24 hours of treatment): 2121% | organization of the microtubule network (CV-1 cells): dramatic alterations in the cells' microtubule network; also recorded: loss of centrosomal enucleated microtubules, clearing up of microtubules from the cytosol, and coiling up of microtubules around the nucleus and at the cell periphery; also recorded: disruption of the microtubule network
